# According to patent US8877741B2, “Pyrrolidine derivatives, pharmaceutical compositions and uses thereof” (Boehringer Ingelheim International GmbH, priority 2013, dated 2014):
# Biological target: human ACC2 (Homo sapiens (Human), UniProt O00763)
# Assay: ACC2 assay, spectrophotometric 384 well assay (NADH-linked kinetic method)
# Format: biochemical
# Details: human ACC2 construct lacking the 128 N-terminal amino acids; coupled lactate dehydrogenase/pyruvate kinase reaction, 340 nm, 25° C.
# Procedure, shortened: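 ADP formation was monitored as NADH consumption at 340 nm for 15 min at 25 °C, using baculovirus-expressed human ACC2 missing its first 128 amino acids, with 500 μM ATP and 2000 μM each of acetyl-CoA and NADH (final). IC50 was fitted by non-linear regression on low-control-subtracted slopes.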
# Chain of human ACC2 (O00763 129-2458): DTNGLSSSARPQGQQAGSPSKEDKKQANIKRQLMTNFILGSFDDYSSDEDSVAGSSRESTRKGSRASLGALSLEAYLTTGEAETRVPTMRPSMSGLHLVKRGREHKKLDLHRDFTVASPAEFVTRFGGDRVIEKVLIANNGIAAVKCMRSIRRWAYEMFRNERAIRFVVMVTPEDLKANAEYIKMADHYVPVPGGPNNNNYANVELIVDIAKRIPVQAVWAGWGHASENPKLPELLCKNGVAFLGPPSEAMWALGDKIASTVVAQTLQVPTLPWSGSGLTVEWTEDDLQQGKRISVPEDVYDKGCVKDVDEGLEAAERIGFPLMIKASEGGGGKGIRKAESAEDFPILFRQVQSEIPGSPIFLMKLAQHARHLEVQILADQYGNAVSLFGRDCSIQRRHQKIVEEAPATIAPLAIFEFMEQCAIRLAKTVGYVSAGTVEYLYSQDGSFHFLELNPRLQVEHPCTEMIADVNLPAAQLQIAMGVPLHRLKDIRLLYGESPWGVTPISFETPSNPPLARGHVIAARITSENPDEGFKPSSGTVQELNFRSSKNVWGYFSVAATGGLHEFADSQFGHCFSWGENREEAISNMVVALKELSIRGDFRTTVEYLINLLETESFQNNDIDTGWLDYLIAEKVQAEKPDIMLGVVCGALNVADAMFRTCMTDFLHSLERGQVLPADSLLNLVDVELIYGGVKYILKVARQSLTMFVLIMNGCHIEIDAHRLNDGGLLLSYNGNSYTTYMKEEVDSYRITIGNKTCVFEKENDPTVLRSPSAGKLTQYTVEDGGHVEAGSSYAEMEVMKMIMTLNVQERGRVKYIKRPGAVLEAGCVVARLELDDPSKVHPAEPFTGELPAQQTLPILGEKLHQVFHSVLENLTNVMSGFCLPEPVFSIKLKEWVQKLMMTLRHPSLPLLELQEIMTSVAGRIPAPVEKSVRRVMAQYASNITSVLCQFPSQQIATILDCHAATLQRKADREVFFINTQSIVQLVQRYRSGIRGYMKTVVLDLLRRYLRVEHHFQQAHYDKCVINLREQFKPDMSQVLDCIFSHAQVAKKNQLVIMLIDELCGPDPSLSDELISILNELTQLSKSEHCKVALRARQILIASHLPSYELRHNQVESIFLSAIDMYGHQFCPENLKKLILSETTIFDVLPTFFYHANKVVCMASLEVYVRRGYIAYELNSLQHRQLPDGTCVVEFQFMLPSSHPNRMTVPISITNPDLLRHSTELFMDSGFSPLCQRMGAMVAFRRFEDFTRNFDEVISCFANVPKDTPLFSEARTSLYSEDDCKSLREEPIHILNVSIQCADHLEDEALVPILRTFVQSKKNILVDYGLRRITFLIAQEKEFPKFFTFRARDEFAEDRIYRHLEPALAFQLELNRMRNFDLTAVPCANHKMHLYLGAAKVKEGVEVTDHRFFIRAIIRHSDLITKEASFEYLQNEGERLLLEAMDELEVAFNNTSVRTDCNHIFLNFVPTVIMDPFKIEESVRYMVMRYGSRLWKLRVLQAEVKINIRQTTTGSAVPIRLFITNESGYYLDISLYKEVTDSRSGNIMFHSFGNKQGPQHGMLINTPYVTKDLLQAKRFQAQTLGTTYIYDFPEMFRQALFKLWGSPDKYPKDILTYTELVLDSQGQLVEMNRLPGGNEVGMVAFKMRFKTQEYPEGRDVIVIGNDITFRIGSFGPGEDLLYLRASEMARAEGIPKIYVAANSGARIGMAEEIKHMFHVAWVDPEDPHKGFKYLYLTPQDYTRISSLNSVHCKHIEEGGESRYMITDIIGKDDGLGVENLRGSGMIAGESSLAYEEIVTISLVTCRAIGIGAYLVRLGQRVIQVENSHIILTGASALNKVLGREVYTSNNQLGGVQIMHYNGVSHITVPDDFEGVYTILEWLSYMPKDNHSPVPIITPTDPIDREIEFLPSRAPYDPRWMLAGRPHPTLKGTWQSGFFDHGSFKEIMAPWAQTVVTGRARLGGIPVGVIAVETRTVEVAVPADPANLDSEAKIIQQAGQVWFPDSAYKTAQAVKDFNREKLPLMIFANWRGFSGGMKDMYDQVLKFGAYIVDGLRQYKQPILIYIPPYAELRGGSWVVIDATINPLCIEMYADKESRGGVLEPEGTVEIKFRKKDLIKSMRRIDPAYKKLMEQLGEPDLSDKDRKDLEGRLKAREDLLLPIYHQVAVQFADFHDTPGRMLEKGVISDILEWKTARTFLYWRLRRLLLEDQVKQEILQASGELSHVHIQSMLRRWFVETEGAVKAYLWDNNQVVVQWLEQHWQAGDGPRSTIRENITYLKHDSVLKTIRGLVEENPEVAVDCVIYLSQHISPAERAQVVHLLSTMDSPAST
row,SMILES,IC50 [nM]
1,"C[C@H](NC(=O)Nc1ccon1)c1ccc(O[C@@H]2CCN(c3ccc(OCC4CC4(F)F)cn3)C2)cc1 (stereo partly drawn) [Example 3.1, 1-((1S)-1-(4-((3R)-1-(5-((2,2-Difluorocyclopropyl)methoxy)pyridin-2-yl)pyrrolidin-3-yloxy)phenyl)ethyl)-3-(isoxazol-3-yl)urea]",81
2,CC(C)Oc1cc(N2CCC(Oc3ccc([C@H](C)NC(=O)N(C)C)cc3)C2)ccn1 (some centres unmarked) [Example 3.2],65
3,CCNC(=O)N[C@@H](C)c1ccc(OC2CCN(c3ccc(OCC4CC4(F)F)cn3)C2)cc1 (some centres unmarked) [Example 3.3],150
4,CCNC(=O)N[C@@H](C)c1ccc(OC2CCN(c3ccnc(OCC4CC4)c3)C2)cc1 (some centres unmarked) [Example 3.4],75
5,CNC(=O)N[C@@H](C)c1ccc(OC2CCN(c3ccnc(OCC4CC4)c3)C2)cc1 (some centres unmarked) [Example 3.5],50
6,CCN(C)C(=O)N[C@@H](C)c1ccc(OC2CCN(c3ccnc(OCC4CC4)c3)C2)cc1 (some centres unmarked) [Example 3.6],110
7,COCCN(C)C(=O)N[C@@H](C)c1ccc(OC2CCN(c3ccc(OCC4CC4(F)F)cn3)C2)cc1 (some centres unmarked) [Example 3.7],444
8,CCN(C)C(=O)N[C@@H](C)c1ccc(OC2CCN(c3ccc(OCC4CC4(F)F)cn3)C2)cc1 (some centres unmarked) [Example 3.8],90
9,C[C@H](NC(=O)N1CCC1)c1ccc(OC2CCN(c3ccc(OCC4CC4(F)F)cn3)C2)cc1 (some centres unmarked) [Example 3.9],200
10,C[C@H](NC(=O)N1CCOCC1)c1ccc(OC2CCN(c3ccc(OCC4CC4(F)F)cn3)C2)cc1 (some centres unmarked) [Example 3.10],112
11,CC(=O)NC1CCN(C(=O)N[C@@H](C)c2ccc(OC3CCN(c4ccc(OCC5CC5(F)F)cn4)C3)cc2)CC1 (some centres unmarked) [Example 3.11],314
12,C[C@H](NC(=O)N1CCOCC1)c1ccc(OC2CCN(c3ccnc(OCC4CC4)c3)C2)cc1 (some centres unmarked) [Example 3.12],144
13,C[C@H](NC(=O)N1CCOCC1)c1ccc(OC2CCN(c3ccnc(OCC(F)F)c3)C2)cc1 (some centres unmarked) [Example 3.13],497
14,CNC(=O)N[C@@H](C)c1ccc(OC2CCN(c3ccnc(OCC(F)F)c3)C2)cc1 (some centres unmarked) [Example 3.14],238
15,CCNC(=O)N[C@@H](C)c1ccc(OC2CCN(c3ccnc(OCC(F)F)c3)C2)cc1 (some centres unmarked) [Example 3.16],313
16,C[C@H](NC(=O)N(C)C)c1ccc(OC2CCN(c3ccnc(OCC(F)F)c3)C2)cc1 (some centres unmarked) [Example 3.17],138
17,C[C@H](NC(=O)N1CCCC1)c1ccc(OC2CCN(c3ccc(OCC4CC4(F)F)cn3)C2)cc1 (some centres unmarked) [Example 3.18],423
18,CC(=O)NC1CCN(C(=O)N[C@@H](C)c2ccc(OC3CCN(c4ccc(OCC5CC5(F)F)cn4)C3)cc2)C1 (some centres unmarked) [Example 3.19],1440
19,CNC(=O)N[C@@H](C)c1ccc(OC2CCN(c3ccc(OCC4CC4(F)F)cn3)C2)cc1 (some centres unmarked) [Example 3.20],92
20,CC(=O)NC1CCCN(C(=O)N[C@@H](C)c2ccc(OC3CCN(c4ccc(OCC5CC5(F)F)cn4)C3)cc2)C1 (some centres unmarked) [Example 3.21],363
21,C[C@H](NC(=O)N(C)C)c1ccc(OC2CCN(c3ccnc(N4CCC(F)(F)C4)c3F)C2)cc1 (some centres unmarked) [Example 3.22],50
22,C[C@H](NC(=O)N1CCOCC1)c1ccc(OC2CCN(c3ccnc(N4CCC(F)(F)C4)c3F)C2)cc1 (some centres unmarked) [Example 3.23],205
23,"COC(=O)N[C@@H](C)c1ccc(O[C@@H]2CCN(c3ccc(OC[C@H]4CC4(F)F)cn3)C2)cc1 [Example 4.1, Methyl (S)-1-(4-((R)-1-(5-(((R)-2,2-difluorocyclopropyl)methoxy)pyridin-2-yl)pyrrolidin-3-yloxy)phenyl)ethylcarbamate]",39
24,COC(=O)N[C@@H](C)c1ccc(OC2CCN(c3cccc(C(F)(F)F)n3)C2)cc1 (some centres unmarked) [Example 4.2],139
25,COC(=O)N[C@@H](C)c1ccc(OC2CCN(c3ccc(OCC4CC4(F)F)cn3)C2)cc1 (some centres unmarked) [Example 4.3],59
26,COC(=O)N[C@@H](C)c1ccc(OC2CCN(c3ccnc(OCC4CC4)c3)C2)cc1 (some centres unmarked) [Example 4.4],70
27,COC(=O)N[C@@H](C)c1ccc(OC2CCN(c3ccnc(OCC(F)F)c3)C2)cc1 (some centres unmarked) [Example 4.5],166

# Next, values leading:
row,IC50 [nM],SMILES
1,68,COC(=O)N[C@@H](C)c1ccc(OC2CCN(c3ccnc(OCC4CC4(F)F)c3F)C2)cc1 (some centres unmarked) [Example 4.6]
2,134,COC(=O)N[C@@H](C)c1ccc(OC2CCN(c3ccnc(N4CCC(F)(F)C4)c3F)C2)cc1 (some centres unmarked) [Example 4.7]
3,77,CCCNc1nccc(N2CCC(Oc3ccc([C@H](C)NC(=O)OC)cc3)C2)c1F (some centres unmarked) [Example 4.8]
4,649,"C[C@H](NC(=O)C(C)(C)C)c1ccc(O[C@@H]2CCN(c3cccc(C(F)(F)F)n3)C2)cc1 [Example 5.1, N—((S)-1-(4-((R)-1-(6-(Trifluoromethyl)pyridin-2-yl)pyrrolidin-3-yloxy)phenyl)ethyl) pivalamide]"
5,90,C[C@H](NC(=O)N(C)C)c1ccc(OC2CCN(c3cccc(C(F)(F)F)n3)C2)cc1 (some centres unmarked) [Example 5.2]
6,34,CCC(=O)N[C@@H](C)c1ccc(OC2CCN(c3ccnc(N4CCC(F)(F)C4)c3F)C2)cc1 (some centres unmarked) [Example 5.3]
7,49,C[C@H](NC(=O)N(C)C)c1ccc(OC2CCN(c3ccnc(OCC4CC4(F)F)c3F)C2)cc1 (some centres unmarked) [Example 5.4]
8,310,C[C@H](NC(=O)N1CCOCC1)c1ccc(OC2CCN(c3ccnc(OCC4CC4(F)F)c3F)C2)cc1 (some centres unmarked) [Example 5.5]
9,36,CCCNc1nccc(N2CCC(Oc3ccc([C@H](C)NC(=O)N(C)C)cc3)C2)c1F (some centres unmarked) [Example 5.6]
10,117,CCCNc1nccc(N2CCC(Oc3ccc([C@H](C)NC(=O)NCC)cc3)C2)c1F (some centres unmarked) [Example 5.7]
11,141,CCCNc1nccc(N2CCC(Oc3ccc([C@H](C)NC(=O)N4CCOCC4)cc3)C2)c1F (some centres unmarked) [Example 5.8]
12,73,C[C@H](NC(=O)N(C)C)c1ccc(OC2CCN(c3ccnc(OCC(F)F)c3F)C2)cc1 (some centres unmarked) [Example 5.9]
13,428,"CC(O)C(=O)N[C@@H](C)c1ccc(OC2CCN(c3cccc(C(F)(F)F)n3)C2)cc1 (stereo partly drawn) [Example 6.1, 2-Hydroxy-N—((S)-1-(4-((R)-1-(6-(trifluoromethyl)pyridin-2-yl)pyrrolidin-3-yloxy)phenyl)ethyl)propanamide]"
14,614,C[C@H](NC(=O)CO)c1ccc(OC2CCN(c3cccc(C(F)(F)F)n3)C2)cc1 (some centres unmarked) [Example 6.2]
15,400,"C[C@H](NC(=O)C(F)(F)C(F)(F)F)c1ccc(O[C@@H]2CCN(c3cccc(C(F)(F)F)n3)C2)cc1 [Example 7.1, 2,2,3,3,3-Pentafluoro-N—((S)-1-(4-((R)-1-(6-(trifluoromethyl)pyridin-2-yl)pyrrolidin-3-yloxy)phenyl)ethyl)propanamide]"
16,54,C[C@H](NC(=O)C(F)(F)F)c1ccc(OC2CCN(c3ccnc(OCC4CC4)c3)C2)cc1 (some centres unmarked) [Example 7.3]
17,62,"CC(=O)N[C@@H](C)c1ccc(O[C@@H]2CCN(c3cccc(C(F)(F)F)n3)C2)cc1 [Example 8.1, N—((S)-1-(4-((R)-1-(6-(Trifluoromethyl)pyridin-2-yl)pyrrolidin-3-yloxy)phenyl)ethyl)acetamide]"
18,565,CC(=O)N[C@@H](C)c1ccc(O[C@@H]2CCN(c3cc(Cl)ncc3C)C2)cc1 [Example 8.2]
19,755,CC(=O)N[C@@H](C)c1ccc(O[C@@H]2CCN(c3ncc(C(F)(F)F)cc3F)C2)cc1 [Example 8.3]

row,IC50 [nM],SMILES
1,438,CC(=O)N[C@@H](C)c1ccc(O[C@@H]2CCN(c3ccnc(C(F)(F)F)c3)C2)cc1 [Example 8.4]
2,530,CC(=O)N[C@@H](C)c1ccc(O[C@@H]2CCN(c3ccnc(C(=O)N4CCc5c4ccc(F)c5F)c3)C2)cc1 [Example 8.5]
3,910,CC(=O)N[C@@H](C)c1ccc(O[C@@H]2CCN(c3cc(C(F)(F)F)ccn3)C2)cc1 [Example 8.7]
4,265,CC(=O)N[C@@H](C)c1ccc(O[C@@H]2CCN(c3ccc(Cl)c(C(F)(F)F)n3)C2)cc1 [Example 8.8]
5,105,CO[C@@H]1CN(c2cccc(C(F)(F)F)n2)C[C@@H]1Oc1ccc([C@H](C)NC(C)=O)cc1 [Example 8.9]
6,693,COc1cnc(N2CC[C@@H](Oc3ccc([C@H](C)NC(C)=O)cc3)C2)c(Cl)c1 [Example 8.10]
7,1100,CC(=O)N[C@@H](C)c1ccc(O[C@@H]2CCN(c3ccnc(C(=O)Nc4ccc(Cl)cc4)c3)C2)cc1 [Example 8.11]
8,39,CC(=O)N[C@@H](C)c1ccc(O[C@@H]2CCN(c3ccnc(OC4CCC4)c3)C2)cc1 [Example 9.1]
9,41,CC(=O)N[C@@H](C)c1ccc(O[C@@H]2CCN(c3ccnc(OCC(C)C)c3)C2)cc1 [Example 9.2]
10,480,COCC(C)Oc1cc(N2CC[C@@H](Oc3ccc([C@H](C)NC(C)=O)cc3)C2)ccn1 (some centres unmarked) [Example 9.3]
11,75,CCC(C)Oc1cc(N2CC[C@@H](Oc3ccc([C@H](C)NC(C)=O)cc3)C2)ccn1 (some centres unmarked) [Example 9.4]
12,390,CC#CCCOc1cc(N2CC[C@@H](Oc3ccc([C@H](C)NC(C)=O)cc3)C2)ccn1 [Example 9.5]
13,90,CC(=O)N[C@@H](C)c1ccc(O[C@@H]2CCN(c3ccnc(OCc4ccc(F)cc4)c3)C2)cc1 [Example 9.6]
14,40,CC(=O)N[C@@H](C)c1ccc(O[C@@H]2CCN(c3ccnc(OC4CCCCC4)c3)C2)cc1 [Example 9.7]
15,268,CC#CCOc1cc(N2CC[C@@H](Oc3ccc([C@H](C)NC(C)=O)cc3)C2)ccn1 [Example 9.8]
16,140,CC(=O)N[C@@H](C)c1ccc(O[C@@H]2CCN(c3ccnc(OCc4cccc(F)c4)c3)C2)cc1 [Example 9.9]
17,184,CC(=O)N[C@@H](C)c1ccc(O[C@@H]2CCN(c3ccnc(O[C@@H]4CCOC4)c3)C2)cc1 [Example 9.10]
18,68,CC(=O)N[C@@H](C)c1ccc(O[C@@H]2CCN(c3ccnc(OC4CC=CC4)c3)C2)cc1 [Example 9.11]
19,534,CC(=O)N[C@@H](C)c1ccc(O[C@@H]2CCN(c3ccnc(OCCc4ccccc4)c3)C2)cc1 [Example 9.12]
